Data on nine compounds can be found in DBAASP.

One may read the MIC as the lowest concentration that inhibits growth of the organism.

SMILES strings stand for the structures. Converted amounts (≈) assume the structure as drawn.

Some test systems named below: Escherichia coli C600; Candida krusei ATCC 6258; Enterococcus faecalis; Pseudomonas aeruginosa; Enterococcus faecalis VR; Escherichia coli SBS 363; Escherichia coli D31; Enterococcus sp.; Acinetobacter baumannii; Klebsiella pneumoniae; Escherichia coli ESBL; Staphylococcus aureus.
Common to all, as to test: ≥ marks a high value that may be exact or a test limit, other limits are often not marked, values filed in µg/mL are converted to µM
For test [1], the system named is Mycobacterium tuberculosis H37Rv.
The subject of test [2] is Mycobacterium tuberculosis CAS3.
Test [3] has as its system Mycobacterium tuberculosis WXY.
Test [4] relates to Escherichia coli CIP 54.8T.
Test [5] has as its system Staphylococcus aureus 209P.
Test [6] concerns Bacillus subtilis VKM B-501.
In test [7] the test system is Listeria monocytogenes EGD.
In test [8] the test system is Pseudomonas aeruginosa ATCC 27853.
The test system of test [9] is Staphylococcus aureus ATCC 25923.
Test [10] has as its system Escherichia coli ATCC 25922.
The subject of test [11] is Candida tropicalis ATCC 20240.
Test [12] concerns Candida glabrata ATCC 90525.
In test [13] the test system is Candida albicans ATCC 2048.
Test [14] deals with Candida parapsilosis ATCC 20224.
In test [15] the test system is Legionella pneumophila Lens.
Test [16] concerns Staphylococcus aureus ATCC 29213.
The subject of test [17] is Staphylococcus aureus ATCC 43300.
For test [18], the system named is Escherichia coli ATCC BAA-2523.
Test [19] deals with Enterobacter cloacae beta-12.
The test system of test [20] is Pseudomonas aeruginosa PA14.
The test system of test [21] is Staphylococcus epidermidis.

As for `CC(C)C[C@H](NC(=O)[C@H](CC(C)C)NC(=O)[C@H](CCCCN)NC(=O)[C@H](CCCCN)NC(=O)[C@@H](NC(=O)[C@H](C)N)C(C)C)C(=O)N[C@@H](C)C(=O)N[C@@H](C)C(=O)N[C@@H](C)C(=O)N[C@@H](CO)C(=O)N[C@@H](C)C(=O)N[C@@H](C)C(=O)N[C@@H](C)C(=O)N[C@@H](CCCCN)C(=O)N[C@@H](CCCCN)C(=O)O` [AVKKLLAAASAAAKK], the MIC in [1], in test [2] and in [3] was no less than 139 µM each time.

`CC[C@H](C)[C@H](NC(=O)[C@H](Cc1cnc[nH]1)NC(=O)[C@H](Cc1cnc[nH]1)NC(=O)[C@H](Cc1ccccc1)NC(=O)[C@@H](NC(=O)[C@H](CCCCN)NC(=O)[C@@H](NC(=O)[C@@H](N)Cc1ccccc1)[C@@H](C)CC)[C@@H](C)CC)C(=O)N[C@@H](Cc1ccccc1)C(=O)N[C@@H](CCCCN)C(=O)NCC(=O)N[C@@H](CC(N)=O)C(=O)N1CCC[C@H]1C(=O)N[C@@H](CCCCN)C(=O)N[C@@H](Cc1ccccc1)C(=O)N[C@@H](CO)C(=O)N[C@H](C(=O)N[C@H](C(=O)N[C@@H](CCCCN)C(=O)O)[C@@H](C)CC)[C@@H](C)CC` [FIKIFHHIFKGNPKFSIIK] yielded an MIC in [4] of no less than 150 µM.

As to `CSCC[C@H](NC(=O)[C@H](CCCCN)NC(=O)CN)C(=O)N[C@@H](CCCCN)C(=O)N[C@@H](CCC(=O)O)C(=O)N[C@@H](Cc1ccc(O)cc1)C(=O)N[C@@H](Cc1ccccc1)C(=O)N[C@@H](CCCCN)C(=O)N[C@@H](CCCCN)C(=O)N[C@@H](Cc1ccccc1)C(=O)NCC(=O)N[C@@H](C)C(=O)N[C@@H](CO)C(=O)N[C@@H](Cc1ccccc1)C(=O)N[C@@H](CCCCN)C(=O)N[C@@H](CCCN=C(N)N)C(=O)N[C@@H](CCCN=C(N)N)C(=O)N[C@@H](Cc1ccccc1)C(=O)N[C@@H](C)C(=O)N[C@@H](CC(N)=O)C(=O)N[C@@H](CC(C)C)C(=O)N[C@@H](CCCCN)C(=O)N[C@@H](CCCCN)C(=O)N[C@@H](CCCN=C(N)N)C(=O)N[C@@H](CC(C)C)C(N)=O` [GKMKEYFKKFGASFKRRFANLKKRL], the figures for the minimum inhibitory concentration (MIC) (in [5]; with Escherichia coli C600; in test [6]) were 3 µM (≈ 9.24 µg/mL), 1.5 µM (≈ 4.62 µg/mL) and 0.7 µM (≈ 2.16 µg/mL), respectively.

As for `CC[C@H](C)[C@H](NC(=O)[C@H](C)NC(=O)CNC(=O)[C@H](CCCCN)NC(=O)[C@@H](NC(=O)[C@H](CC(C)C)NC(=O)[C@H](C)NC(=O)[C@H](CC(C)C)NC(=O)[C@@H](NC(=O)[C@@H](NC(=O)[C@H](Cc1ccc(O)cc1)NC(=O)[C@@H](NC(=O)[C@H](Cc1ccccc1)NC(=O)[C@H](CCCCN)NC(=O)[C@H](CCCCN)NC(=O)[C@@H](N)CCCCN)[C@@H](C)CC)[C@@H](C)CC)C(C)C)[C@@H](C)CC)C(=O)N[C@H](C(=O)N[C@@H](CCCCN)C(=O)N[C@@H](CCCCN)C(=O)NCC(N)=O)[C@@H](C)CC` [KKKFIYIVLALIKGAIIKKG], the MIC is no less than 32 µM in test [7], 64 µM (≈ 144 µg/mL) in test [8], 64 µM (≈ 144 µg/mL) in test [9] and 32 µM (≈ 71.8 µg/mL) in test [10].

Consider `CC(C)C[C@H](NC(=O)[C@H](C)NC(=O)[C@H](CC(C)C)NC(=O)[C@H](CC(=O)O)NC(=O)[C@H](CCC(N)=O)NC(=O)[C@@H](N)CC(C)C)C(=O)N[C@@H](CCC(N)=O)C(=O)NCC(=O)N[C@@H](C)C(=O)N[C@@H](CCCCN)C(=O)N[C@@H](CCC(=O)O)C(=O)N[C@@H](CCCN=C(N)N)C(=O)N[C@@H](C)C(=O)N[C@@H](Cc1cnc[nH]1)C(=O)N[C@@H](CCC(N)=O)C(=O)N[C@@H](CCC(N)=O)C(=O)O` [LQDLALQGAKERAHQQ], for which the MIC was no less than 410 µM in test [11]; no less than 280 µM in test [12]; no less than 380 µM in the test on Candida krusei ATCC 6258; no less than 380 µM in test [13]; no less than 320 µM in test [14].

`CC[C@H](C)[C@H](NC(=O)[C@H](CC(C)C)NC(=O)[C@H](CCCCN)NC(=O)[C@H](CCCCN)NC(=O)[C@@H](NC(=O)[C@@H](NC(=O)[C@H](CCC(=O)O)NC(=O)[C@@H](NC(=O)[C@@H](NC(=O)[C@H](CCCCN)NC(=O)[C@H](C)NC(=O)[C@@H](NC(=O)[C@@H](NC(=O)[C@H](CC(=O)O)NC(=O)[C@H](C)NC(=O)[C@@H](N)CCSC)C(C)C)[C@@H](C)CC)[C@@H](C)CC)C(C)C)[C@@H](C)CC)C(C)C)C(=O)N[C@@H](CC(=O)O)C(=O)N[C@@H](CCC(N)=O)C(=O)N[C@@H](Cc1ccccc1)C(=O)N[C@H](C(=O)N[C@@H](CCC(N)=O)C(=O)N[C@@H](CCCCN)C(=O)O)[C@@H](C)O` [MADVIAKIVEIVKKLIDQFTQK]: the MIC in test [15] amounted to 0.62 µM (≈ 1.57 µg/mL).

Consider `CC(C)C[C@H](NC(=O)[C@@H](N)CCC(N)=O)C(=O)NCC(=O)N[C@@H](CCCCN)C(=O)N[C@@H](CCCCN)C(=O)N[C@@H](CCCCN)C(=O)N[C@@H](Cc1cnc[nH]1)C(=O)N[C@@H](CCCN=C(N)N)C(=O)N[C@@H](CCCN=C(N)N)C(=O)N[C@@H](CCCN=C(N)N)C(=O)N1CCC[C@H]1C(=O)N[C@@H](CO)C(=O)N[C@@H](CCCCN)C(=O)N[C@@H](CCCCN)C(=O)N[C@@H](CCCCN)C(=O)N[C@@H](CCCN=C(N)N)C(=O)N[C@@H](Cc1cnc[nH]1)C(=O)N[C@@H](Cc1c[nH]c2ccccc12)C(=O)O` [QLGKKKHRRRPSKKKRHW], for which the MIC is no less than 128 µM in the test on Enterococcus faecalis; greater than 128 µM against Pseudomonas aeruginosa; no less than 128 µM with Enterococcus faecalis VR; greater than 128 µM in [8]; 128 µM (≈ 301 µg/mL) in test [16]; 128 µM (≈ 301 µg/mL) in test [17]. Further, the values for the MIC in test [18] and in test [10] were no less than 128 µM and greater than 128 µM, respectively.

As to `CC[C@H](C)[C@H](NC(=O)[C@H](CC(=O)O)NC(=O)[C@H](CC(=O)O)NC(=O)[C@H](CC(N)=O)NC(=O)CNC(=O)[C@H](CO)NC(=O)[C@H](Cc1ccccc1)NC(=O)[C@H](CC(=O)O)NC(=O)[C@@H](NC(=O)CNC(=O)[C@@H](N)C(C)C)[C@@H](C)O)C(=O)N[C@@H](CO)C(=O)N[C@@H](CC(=O)O)C(=O)N[C@H](C(=O)N[C@@H](CCC(N)=O)C(=O)N[C@@H](CCCCN)C(=O)O)C(C)C` [VGTDFSGNDDISDVQK], the MIC amounted to 1.15 µM (≈ 1.95 µg/mL) in test [8]; 4.6 µM (≈ 7.81 µg/mL) in the test with Escherichia coli SBS 363; 4.6 µM (≈ 7.81 µg/mL) with Escherichia coli D31; 2.3 µM (≈ 3.9 µg/mL) in [19]; 4.6 µM (≈ 7.81 µg/mL) in [20].

Turning to `CC(C)C[C@H](NC(=O)CNC(=O)[C@H](CCCCN)NC(=O)[C@@H](NC(=O)[C@H](CCCCN)NC(=O)[C@H](CCCCN)NC(=O)[C@@H](NC(=O)[C@@H](NC(=O)[C@H](CCCCN)NC(=O)[C@@H](NC(=O)[C@H](CCCCN)NC(=O)CNC(=O)[C@H](CCCN=C(N)N)NC(=O)[C@H](Cc1ccc(O)cc1)NC(=O)[C@H](CC(C)C)NC(=O)[C@H](CCCCN)NC(=O)CNC(=O)[C@H](Cc1ccccc1)NC(=O)[C@@H](N)Cc1c[nH]c2ccccc12)[C@@H](C)O)C(C)C)C(C)C)C(C)C)C(=O)N[C@@H](CC(C)C)C(=O)N[C@@H](CCCCN)C(=O)NCC(=O)O` [WFGKLYRGKTKVVKKVKGLLKG], the MIC against Pseudomonas aeruginosa came to 4.93 µM (≈ 12.5 µg/mL); with Enterococcus sp., 9.87 µM (≈ 25 µg/mL); against Acinetobacter baumannii, 2.47 µM (≈ 6.25 µg/mL); in the test on Klebsiella pneumoniae, 4.93 µM (≈ 12.5 µg/mL); in test [21], 9.87 µM (≈ 25 µg/mL); in the test with Escherichia coli ESBL it was 2.47 µM (≈ 6.25 µg/mL). This compound displayed an MIC in the test on Staphylococcus aureus of 9.87 µM (≈ 25 µg/mL).
